Like-named read-outs stand apart in the source and are kept apart here.
Assays:
[1] = target: T1, GHS-R1a receptor (HEK293 cells expressing GHS-R1a receptor) (Homo sapiens, UniProt Q92847); test: Fluorescence functional assay (ghrelin receptor), Method B2, agonist and antagonist mode; type: cell-based; conditions: functional activity as an antagonist at the ghrelin receptor, Methods B2 and B3
T1 construct: host or cells: HEK293
Procedure, shortened: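 Calcium flux read by ImageTrak epifluorescence in HEK293 cells stably expressing GHS-R1a, loaded 1 h at 37 °C with Calcium-3 dye; buffer HBSS/20 mM Hepes, pH 7.4, with probenecid and BSA. Agonists injected after 10 s baseline, read 50 s more; antagonists 3 min. Sigmoidal fits gave EC50 or IC50.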

[2] = target: T2, human ghrelin receptor (GRLN, growth hormone secretagogue receptor, hGHS-R1a) (Homo sapiens, UniProt Q92847); test: Competitive radioligand binding assay (ghrelin receptor), Method B1
T2 construct: purchased PerkinElmer BioSignal #RBHGHSM, lot#1887; host or cells: HEK-293 cells, stably transfected (membranes)
Procedure, shortened: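 Membranes incubated with compound 30 min at rt in 25 mM Hepes pH 7.4, 1 mM CaCl2, 5 mM MgCl2, 2.5 mM EDTA, 0.4% BSA, max 0.1% DMSO; filtered on PEI-soaked GF/C, washed with cold Tris, scintillation counted. Curves fitted by variable-slope non-linear regression.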

[3] = Metabolic stability in human liver microsomes, Method B8; type: in vitro ADME; conditions: human liver microsomes 0.8 mg/mL, 5 μM compound, 37° C.
Procedure, shortened: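 Pooled human liver microsomes (15 mixed-sex donors) at 0.8 mg/mL in 100 mM potassium phosphate, pH 7.4, with 1.5 mM NADPH and 8 mM MgCl2. Compounds tested in duplicate at a single 5 μM (0.05% DMSO), incubated at 37° C.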

[4] = Ghrelin receptor binding activity, Method B1

T1 sequence (Q92847 whole entry): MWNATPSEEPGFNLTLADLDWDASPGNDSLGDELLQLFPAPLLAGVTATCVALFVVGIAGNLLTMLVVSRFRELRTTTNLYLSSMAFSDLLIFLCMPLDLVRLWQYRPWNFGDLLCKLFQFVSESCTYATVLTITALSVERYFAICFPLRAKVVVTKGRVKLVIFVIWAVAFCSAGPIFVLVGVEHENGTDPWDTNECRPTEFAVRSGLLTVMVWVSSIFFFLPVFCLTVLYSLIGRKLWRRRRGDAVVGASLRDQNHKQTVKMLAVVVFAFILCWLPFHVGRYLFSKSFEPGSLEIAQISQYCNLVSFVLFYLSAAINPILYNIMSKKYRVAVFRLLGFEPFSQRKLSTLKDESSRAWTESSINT
T2 sequence (Q92847 whole entry): as above

| Compound | Antagonist Activity [1] | IC50 [2] | HLM, metabolic stability in human liver microsomes [3] | IC50 [2, 4] |
| --- | --- | --- | --- | --- |
| Cc1cccc(C[C@H]2NC(=O)[C@H](C(C)O)N(C)C(=O)[C@H](C(C)C)NCCOc3ccccc3C[C@H](O)CNC2=O)c1 (stereo partly shown) [Compound 1453] | B (B = 1-10 nM) | 1 to 10 nM | – | – |
| CC(C)[C@@H]1NCCOc2ccccc2C[C@H](O)[C@@H](C)NC(=O)[C@@H](Cc2cccc(F)c2)NC(=O)[C@H](C(C)O)N(C)C1=O (stereo partly shown) [Compound 1503] | B (B = 1-10 nM) | 1 to 10 nM | 20.9 μL/min/mg protein | – |
| CC[C@@H]1CCc2ccc(F)cc2OCCN[C@@H](C(C)C)C(=O)N(C)[C@@H](C(C)O)C(=O)N[C@H](Cc2c[nH]c3ccccc23)C(=O)N1 (stereo partly shown) [Compound 1505] | B (B = 1-10 nM) | 1 to 10 nM | 51.5 μL/min/mg protein | – |
| CC(C)[C@@H]1NCCOc2ccccc2C#C[C@@H](C)NC(=O)[C@@H](Cc2ccccc2)NC(=O)[C@H](C(C)O)N(C)C1=O (stereo partly shown) [Compound 1688] | A (A <1 nM) | 1 to 10 nM | 41.4 μL/min/mg protein | – |
| CC(C)C1NCCOc2ccccc2C#CCNC(=O)C(Cc2c[nH]c3ccccc23)NC(=O)C(C(C)O)N(C)C1=O (stereo not shown) [Compound 1692] | C (C = 10-100 nM) | – | 121 μL/min/mg protein | 1 to 10 nM |
| CC(C)C1NCCOc2cc(F)ccc2C#CCNC(=O)C(Cc2c[nH]c3ccccc23)NC(=O)C(C(C)O)N(C)C1=O (stereo not shown) [Compound 1693] | C (C = 10-100 nM) | – | 83.8 μL/min/mg protein | 10 to 100 nM |
| CCC1CCc2ccc(F)cc2OCCNC(C2(C)CC2)C(=O)N(C)C(C(C)O)C(=O)NC(Cc2c[nH]c3ccccc23)C(=O)N1 (stereo not shown) [Compound 1703] | B (B = 1-10 nM) | – | 44.8 μL/min/mg protein | 1 to 10 nM |
| CC[C@@H]1C#Cc2ccc(F)cc2O[C@H](C)CN[C@@H](C2(C)CC2)C(=O)N(C)[C@@H](C(C)O)C(=O)N[C@H](Cc2c[nH]c3ccccc23)C(=O)N1 (stereo partly shown) [Compound 1707] | B (B = 1-10 nM) | – | 27.3 μL/min/mg protein | 10 to 100 nM |
| CC(C)[C@@H]1NCCOc2ccccc2C#CCNC(=O)[C@@H](Cc2ccccc2)NC(=O)[C@H](C(C)O)N(C)C1=O (stereo partly shown) [Compound 1712] | – | 1 to 10 nM | 58.2 μL/min/mg protein | – |
| CC(O)[C@H]1C(=O)N[C@H](Cc2c[nH]c3ccccc23)C(=O)N[C@H](C)C#Cc2ccccc2OCCN[C@@H](C2(C)CC2)C(=O)N1C (stereo partly shown) [Compound 1713] | B (B = 1-10 nM) | – | 48.8 μL/min/mg protein | 1 to 10 nM |
| CC[C@@H]1C#Cc2ccccc2O[C@H](C)CN[C@@H](C2(C)CC2)C(=O)N(C)[C@@H](C(C)O)C(=O)N[C@H](Cc2c[nH]c3ccccc23)C(=O)N1 (stereo partly shown) [Compound 1718] | B (B = 1-10 nM) | – | 43.6 μL/min/mg protein | 1 to 10 nM |
| CC(O)[C@H]1C(=O)N[C@H](Cc2c[nH]c3ccccc23)C(=O)N[C@H](C)CCc2ccc(F)cc2O[C@H](C)CN[C@@H](C2(C)CC2)C(=O)N1C (stereo partly shown) [Compound 1719] | C (C = 10-100 nM) | – | 23.4 μL/min/mg protein | 10 to 100 nM |
| CC(O)[C@H]1C(=O)N[C@H](Cc2c[nH]c3ccccc23)C(=O)N[C@H](C)C#Cc2ccc(F)cc2O[C@H](C)CN[C@@H](C2(C)CC2)C(=O)N1C (stereo partly shown) [Compound 1720] | B (B = 1-10 nM) | – | 23.2 μL/min/mg protein | 10 to 100 nM |
| CC[C@@H]1C#Cc2c(F)cccc2OCCN[C@@H](C(C)C)C(=O)N(C)[C@@H](C(C)O)C(=O)N[C@H](Cc2c[nH]c3ccccc23)C(=O)N1 (stereo partly shown) [Compound 1726] | B (B = 1-10 nM) | – | 41.5 μL/min/mg protein | 10 to 100 nM |

Now from value to compound:

| Antagonist Activity [1] | IC50 [2] | HLM, metabolic stability in human liver microsomes [3] | IC50 [2, 4] | Compound |
| --- | --- | --- | --- | --- |
| B (B = 1-10 nM) | – | 38.6 μL/min/mg protein | 1 to 10 nM | CC[C@@H]1CCc2ccc(F)cc2OCCN[C@@H](C2(C)CC2)C(=O)N(C)[C@@H](C(C)O)C(=O)N[C@H](Cc2ccccc2)C(=O)N1 (stereo partly shown) [Compound 1746] |
| B (B = 1-10 nM) | – | 109.6 μL/min/mg protein | 1 to 10 nM | CC[C@@H]1CCc2ccc(F)cc2OCCN[C@@H](C(C)C)C(=O)N(C)[C@@H](C(C)O)C(=O)N[C@H](Cc2ccc(O)cc2)C(=O)N1 (stereo partly shown) [Compound 1751] |
| B (B = 1-10 nM) | – | 43.7 μL/min/mg protein | 1 to 10 nM | CC[C@@H]1C#Cc2ccccc2OCCN[C@@H](C(C)C)C(=O)N(C)[C@@H](C(C)O)C(=O)N[C@H](Cc2c[nH]c3ccccc23)C(=O)N1 (stereo partly shown) [Compound 1754] |
| B (B = 1-10 nM) | – | 47.8 μL/min/mg protein | 1 to 10 nM | CC[C@@H]1C#Cc2ccc(F)cc2OCCN[C@@H](C(C)C)C(=O)N(C)[C@@H](C(C)O)C(=O)N[C@H](Cc2c[nH]c3ccccc23)C(=O)N1 (stereo partly shown) [Compound 1755] |
| B (B = 1-10 nM) | – | 39.6 μL/min/mg protein | 1 to 10 nM | CC(C)[C@@H]1NCC2CCc3cccc(c3O2)CCCNC(=O)[C@@H](Cc2ccccc2)NC(=O)[C@H](C(C)O)N(C)C1=O (stereo partly shown) [Compound 1777] |
| B (B = 1-10 nM) | 10 to 100 nM | 58.1 μL/min/mg protein | – | CC(O)[C@H]1C(=O)N[C@H](Cc2ccccc2)C(=O)NCCCc2cccc3c2OC(CC3)CN[C@@H](C2CC2)C(=O)N1C (stereo partly shown) [Compound 1778] |
| B (B = 1-10 nM) | 10 to 100 nM | 25.3 μL/min/mg protein | – | CC[C@@H]1NCC2CCc3cccc(c3O2)CCCNC(=O)[C@@H](Cc2ccccc2)NC(=O)[C@H](C(C)O)N(C)C1=O (stereo partly shown) [Compound 1780] |
| A (A <1 nM) | – | 33.7 μL/min/mg protein | 10 to 100 nM | CC(C)[C@@H]1NCCOc2ccccc2C2CCC(C2)NC(=O)[C@@H](Cc2c[nH]c3ccccc23)NC(=O)[C@H](C(C)O)N(C)C1=O (stereo partly shown) [Compound 1843] |
| A (A <1 nM) | – | 60.7 μL/min/mg protein | – | CC(C)[C@@H]1NCCOc2ccccc2C2CCC(C2)NC(=O)[C@@H](Cc2ccccc2)NC(=O)[C@H](C(C)O)N(C)C1=O (stereo partly shown) [Compound 1848] |
| A (A <1 nM) | 1 to 10 nM | 30.9 μL/min/mg protein | – | CC(O)[C@H]1C(=O)N[C@H](Cc2ccccc2)C(=O)NCC#Cc2c(F)cccc2OCCN[C@@H](C2(C)CC2)C(=O)N1C (stereo partly shown) [Compound 1876] |
| A (A <1 nM) | 1 to 10 nM | 34.7 μL/min/mg protein | – | CC(O)[C@H]1C(=O)N[C@H](Cc2ccccc2)C(=O)NCC#Cc2ccccc2OCCN[C@@H](C2(C)CC2)C(=O)N1C (stereo partly shown) [Compound 1878] |
| A (A <1 nM) | – | 47.9 μL/min/mg protein | – | CC(C)[C@@H]1NCCOc2ccccc2C2CCC(C2)NC(=O)[C@@H](Cc2ccc(F)cc2)NC(=O)[C@H](C(C)O)N(C)C1=O (stereo partly shown) [Compound 1903] |
| B (B = 1-10 nM) | 1 to 10 nM | 14.3 μL/min/mg protein | – | CC(O)[C@H]1C(=O)N[C@H](Cc2ccccc2)C(=O)NCC#Cc2ccc(F)cc2OCCN[C@@H](C2(C)CC2)C(=O)N1C (stereo partly shown) [Compound 1918] |
| B (B = 1-10 nM) | 1 to 10 nM | – | – | CC(C)[C@@H]1NCCOc2cccc(F)c2C#CCNC(=O)[C@@H](Cc2ccccc2)NC(=O)[C@H](C(C)O)N(C)C1=O (stereo partly shown) [Compound 1929] |
